Assays:
[1] = biological target: Sialic acid-binding Ig-like lectin 9 (Homo sapiens, UniProt Q9Y336); assay: Hs-Siglec9 ALPHAscreen SOP 20170721
[2] = system: Plasmodium falciparum; assay: Calibr Malaria Delayed Death Assay SOP; format: functional, organism-based
[3] = system: Mycobacterium tuberculosis; assay: Cornell M. t heat shock assay; format: functional, organism-based; conditions: for IC50: Mycobacterium tuberculosis
[4] = system: Wolbachia pipientis; assay: Anti-Wolbachia Cell-Based Screen; format: functional; conditions: for IC50: Wolbachia pipientis
[5] = biological target: T1, Coenzyme A biosynthesis bifunctional protein CoaBC (Mycobacterium tuberculosis (strain ATCC 25618 / H37Rv), UniProt P9WNZ1); assay: Biomol Green assay for MtCoaBC inhibitor, OD650 read; format: functional
T1 sequence (P9WNZ1 whole entry): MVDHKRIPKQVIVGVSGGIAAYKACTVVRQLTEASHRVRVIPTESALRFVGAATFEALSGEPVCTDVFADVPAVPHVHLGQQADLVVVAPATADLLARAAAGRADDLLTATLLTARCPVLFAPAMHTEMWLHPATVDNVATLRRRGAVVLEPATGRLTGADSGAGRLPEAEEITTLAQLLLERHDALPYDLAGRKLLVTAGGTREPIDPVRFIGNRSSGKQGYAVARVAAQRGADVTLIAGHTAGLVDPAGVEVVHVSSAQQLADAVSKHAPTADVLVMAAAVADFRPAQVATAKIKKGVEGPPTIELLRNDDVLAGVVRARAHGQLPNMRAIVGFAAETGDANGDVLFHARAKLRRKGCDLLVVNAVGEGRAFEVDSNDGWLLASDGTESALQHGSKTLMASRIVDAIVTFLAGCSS

Sialic acid-binding Ig-like lectin 9, sequence (Q9Y336 whole entry): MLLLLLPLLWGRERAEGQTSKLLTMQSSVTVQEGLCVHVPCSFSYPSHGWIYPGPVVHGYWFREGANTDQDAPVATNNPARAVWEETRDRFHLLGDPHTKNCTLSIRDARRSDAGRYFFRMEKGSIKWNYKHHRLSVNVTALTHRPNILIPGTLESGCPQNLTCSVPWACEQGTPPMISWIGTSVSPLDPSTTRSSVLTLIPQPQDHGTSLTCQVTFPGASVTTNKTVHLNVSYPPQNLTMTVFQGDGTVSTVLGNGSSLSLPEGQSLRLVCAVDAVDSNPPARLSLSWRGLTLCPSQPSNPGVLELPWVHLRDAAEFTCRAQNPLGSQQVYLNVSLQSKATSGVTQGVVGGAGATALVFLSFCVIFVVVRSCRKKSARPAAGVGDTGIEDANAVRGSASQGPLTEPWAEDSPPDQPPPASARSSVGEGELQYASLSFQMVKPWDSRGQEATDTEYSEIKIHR

| SMILES | IC50 [1] | further results |
| --- | --- | --- |
| CCn1ncc2c1C(COC)CN(Cc1ccc(C)o1)C2 (stereo not drawn) | > 30.2 µM |  |
| CC(=O)NCCCSC1CCN(c2ccccc2F)C1=O (stereo not drawn) | > 30.2 µM |  |
| Cc1cccc(CN2CCCC2c2cccc(Nc3nccs3)n2)c1 (stereo not drawn) |  | pIC50 [2]: 5.988; IC50 ([2]; Plasmodium falciparum): 1.01 µM; pIC50 [3]: 5.755; IC50 [3]: 2.41 µM; pIC50 [4]: 5.856; IC50 [4]: 1.87 µM |
| CCn1c(C)cc(C(=O)N2CCC(Nc3cccnn3)CC2)c1C | > 30.2 µM |  |
| O=c1[nH]nc(-c2cccs2)c2sc(N3CCOCC3)nc12 | > 30.2 µM |  |
| O=C(c1cscn1)N1CCO[C@H]2[C@@H](Oc3ccccn3)CC[C@@H]21 | > 30.2 µM |  |
| CCOCC1CN(Cc2ccsc2)Cc2cnn(C)c21 (stereo not drawn) | > 30.2 µM |  |
| NC(=O)c1csc(N2C[C@@H](CN3CCCCC3)[C@@H](CO)C2)n1 | > 30.2 µM |  |
| CCOC(=O)Cc1csc(NC(=O)c2cc3n(n2)CCCO3)n1 | > 30.2 µM |  |
| CCc1nc(C2CCCN(c3ncc(Br)cn3)C2)no1 (stereo not drawn) | > 30.2 µM |  |
| CCOC(=O)[C@H]1[C@@H](O)C(=O)N(C)C12CCN(C(=O)OC)CC2 | > 30.2 µM |  |
| Cc1cc(C(=O)NC2CC(=O)N(C(C)C)C2=O)c(C)n1C(C)C (stereo not drawn) | > 30.2 µM |  |
| O=C(NCc1nc2ccccc2[nH]1)c1cc2n(n1)CCCO2 | > 30.2 µM |  |
| Cc1nc(C2CCCN(c3ncc(Br)cn3)C2)no1 (stereo not drawn) | > 30.2 µM |  |
| O=C(NCCc1nncn1C1CC1)C1(c2ccccc2)CCC1 | > 30.2 µM |  |
| c1cnc(N2CCC3(CCN(CC4CCOC4)CC3)C2)nc1 (stereo not drawn) | > 30.2 µM |  |
| COC(=O)CC1CCN(C(=O)c2ccc(-n3nnnc3C)cc2)CC1 | > 30.2 µM |  |
| Cc1cnn(CC2CCCN2C(=O)c2cccc(-n3ccc(C)n3)c2)c1 (stereo not drawn) | > 30.2 µM |  |
| CCOC(=O)[C@H]1[C@@H](O)C(=O)N(C)C12CCN(C(=O)C(CC)CC)CC2 | > 30.2 µM |  |
| COc1ccc(C(C)NCc2cccs2)cc1Cn1cccn1 (stereo not drawn) | > 30.2 µM |  |
| CCn1ncc2c1C(COC)CN(Cc1ccc(OC)cc1)C2 (stereo not drawn) | > 30.2 µM |  |
| CC(C)CC1(C(=O)NCCc2nncn2C2CC2)CCC1 | > 30.2 µM |  |
| O=C(C1CCN(c2nc3nc[nH]c(=O)c3s2)CC1)N1CCCCC1 | > 30.2 µM |  |
| CCOc1cccc(C2CC(=O)NCc3nc(N4CCCC4)sc32)c1 (stereo not drawn) | > 30.2 µM |  |
| CCOC(=O)[C@H]1[C@@H](O)C(=O)N(C)C12CCN(C(=O)CC1CCCC1)CC2 | > 30.2 µM |  |
| Cc1oc(C)c(C(=O)NCc2cccnc2)c1C | > 30.2 µM |  |

| SMILES | IC50 [1] | further results |
| --- | --- | --- |
| Cc1nn(C)c(C)c1CCC(=O)NCc1csc(N2CCCC2)n1 | > 30.2 µM |  |
| Cc1occc1C(=O)N1CCCS1(=O)=O | > 30.2 µM |  |
| CCOC(=O)[C@@H]1[C@@H](O)C(=O)N(C)C12CCN(C(=O)c1ccco1)CC2 | > 30.2 µM |  |
| Cc1cc(CN2C[C@@H]3COC[C@]3(COCC(=O)N(C)C)C2)no1 | > 30.2 µM |  |
| c1ccc(CCN2CCCC2c2cccc(Nc3nccs3)n2)cc1 (stereo not drawn) |  | IC50 [5]: > 30.2 µM; pIC50 [3]: 4.565; IC50 [3]: 38.9 µM; pIC50 [4]: 5.678; IC50 [4]: 1.09 µM |
| O=C1Nc2ccccc2CNC12CCN(CC1CCNC1)CC2 (stereo not drawn) | > 30.2 µM |  |
| CCOC(=O)[C@H]1[C@@H](O)C(=O)N(C)C12CCN(C(=O)CC(C)(C)C)CC2 | > 30.2 µM |  |
| c1cnc(N2CCC3(CCN(CC4CCOCC4)CC3)C2)nc1 | > 30.2 µM |  |
| CN(C)C(=O)COC[C@]12COC[C@H]1CN(CCc1ccccc1)C2 | > 30.2 µM |  |
| COc1ccc(OC)c(C(=O)N2CCC(Nc3cccnc3)CC2)c1 | > 30.2 µM |  |
| Cc1cc(C(=O)N2CC[C@](C)(O)[C@H](C)C2)c(C)n1C | > 30.2 µM |  |
| CCOC(=O)[C@H]1[C@@H](O)C(=O)N(C)C12CCN(C(=O)OCC)CC2 | > 30.2 µM |  |
| CN1CC2(CCN(CC3CC3)CC2)COc2ccccc2S1(=O)=O | > 30.2 µM |  |
| CC(C)NC(=O)N1CCC2(CC1)COc1ccccc1S(=O)(=O)N(C)C2 | > 30.2 µM |  |
| FC(F)(F)c1cc(C2CCCN(c3ncccn3)C2)n2ccnc2n1 (stereo not drawn) | > 30.2 µM |  |
| Cc1occc1C(=O)N1CCO[C@H]2[C@H](OCc3ccccn3)CC[C@@H]21 | > 30.2 µM |  |
| O=C(NCCc1nncn1C1CC1)C1SCCc2sccc21 (stereo not drawn) | > 30.2 µM |  |
| CCCN1Cc2ccccc2NC(=O)C12CCNC2 (stereo not drawn) | > 30.2 µM |  |
| Cc1cccc(CN2C[C@@H]3COC[C@]3(COCC(=O)N(C)C)C2)n1 | > 30.2 µM |  |
| CC(C)c1cc(C(=O)N2CCCC(c3cc(=O)nc4n3CCC4)C2)no1 (stereo not drawn) | > 30.2 µM |  |
| CCn1ncc2c1C(COC)CN(Cc1ccsc1)C2 (stereo not drawn) | > 30.2 µM |  |
| CC(C)NC(=O)C1CCN(c2nc3nc[nH]c(=O)c3s2)CC1 | > 30.2 µM |  |
| N#Cc1ccc2c(c1)CN(C(=O)C1CC=CC1)C2c1cnco1 (stereo not drawn) | > 30.2 µM |  |
| CC(C)N(C)CC(=O)NCc1ccccc1N1CCN(C)CC1 | > 30.2 µM |  |
| O=C(NCCc1nncn1C1CC1)C1(Cc2ccccc2)CCC1 | > 30.2 µM |  |
| CCN(CC)S(=O)(=O)N1CCCC1c1cccc(Nc2ncc(C)s2)n1 (stereo not drawn) |  | IC50 [3]: > 100 µM; pIC50 [4]: 5.165; IC50 [4]: 8.99 µM |

From ChEMBL document CHEMBL3988442, “University of Dundee, Small-Polar-MMV Screening Library” (2021)
